Measurements taken from the kinase profiling compilation of Christmann-Franck et al. (2016).
Each block holds one compound with its values, some of them ahead of it.

Tests used:
Assay in all cases: radiometric filter-binding kinase assay
[1] = tested on: AKT1 (human), P31749 [S473D]
AURKB (human) = AURKB (human) (UniProt Q96GD4)
CDK2 CCNA2 (human) = CDK2 CCNA2 (human) (UniProt P20248+P24941)
CHEK1 (human) = CHEK1 (human) (UniProt O14757)
CHEK2 (human) = CHEK2 (human) (UniProt O96017)
CSK (human) = CSK (human) (UniProt P41240)
CaMK1 (human) = CaMK1 (human) (UniProt Q14012)
DYRK3 (human) = DYRK3 (human) (UniProt O43781)
EPHA2 (human) = EPHA2 (human) (UniProt P29317)
EPHB3 (human) = EPHB3 (human) (UniProt P54753)
LCK (mouse) = details: accession and sequence are those of the human protein
MAP2K1 (human) = MAP2K1 (human) (UniProt Q02750)
MAPK8 (human) = MAPK8 (human) (UniProt P45983)
MST4 (human) = MST4 (human) (UniProt Q9P289)
MYLK (human) = MYLK (human) (UniProt Q15746)
PAK4 (human) = PAK4 (human) (UniProt O96013)
PAK6 (human) = PAK6 (human) (UniProt Q9NQU5)
PKN2 (human) = PKN2 (human) (UniProt Q16513)
ROCK2 (rat) = details: accession and sequence are those of the human protein
RPS6KA3 KD1 KD2 (human) = RPS6KA3 KD1 KD2 (human) (UniProt P51812)
SRC (human) = SRC (human) (UniProt P12931)
TBK1 (human) = TBK1 (human) (UniProt Q9UHD2)
IKBKB (human) = IKBKB (human) (UniProt O14920)

MAP2K1 (human), sequence (Q02750 whole entry, looked up): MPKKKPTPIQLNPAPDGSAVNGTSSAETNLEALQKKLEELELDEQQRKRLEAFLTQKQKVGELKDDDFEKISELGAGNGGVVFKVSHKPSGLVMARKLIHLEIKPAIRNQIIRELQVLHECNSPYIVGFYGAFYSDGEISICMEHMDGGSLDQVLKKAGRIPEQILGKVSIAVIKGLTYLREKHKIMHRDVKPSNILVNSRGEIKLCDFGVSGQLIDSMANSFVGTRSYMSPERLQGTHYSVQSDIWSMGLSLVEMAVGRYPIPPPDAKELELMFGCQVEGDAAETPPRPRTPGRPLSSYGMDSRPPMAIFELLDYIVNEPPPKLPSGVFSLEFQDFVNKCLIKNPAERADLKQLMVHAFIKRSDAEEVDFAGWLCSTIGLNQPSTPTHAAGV
PAK6 (human), sequence (Q9NQU5 whole entry, looked up): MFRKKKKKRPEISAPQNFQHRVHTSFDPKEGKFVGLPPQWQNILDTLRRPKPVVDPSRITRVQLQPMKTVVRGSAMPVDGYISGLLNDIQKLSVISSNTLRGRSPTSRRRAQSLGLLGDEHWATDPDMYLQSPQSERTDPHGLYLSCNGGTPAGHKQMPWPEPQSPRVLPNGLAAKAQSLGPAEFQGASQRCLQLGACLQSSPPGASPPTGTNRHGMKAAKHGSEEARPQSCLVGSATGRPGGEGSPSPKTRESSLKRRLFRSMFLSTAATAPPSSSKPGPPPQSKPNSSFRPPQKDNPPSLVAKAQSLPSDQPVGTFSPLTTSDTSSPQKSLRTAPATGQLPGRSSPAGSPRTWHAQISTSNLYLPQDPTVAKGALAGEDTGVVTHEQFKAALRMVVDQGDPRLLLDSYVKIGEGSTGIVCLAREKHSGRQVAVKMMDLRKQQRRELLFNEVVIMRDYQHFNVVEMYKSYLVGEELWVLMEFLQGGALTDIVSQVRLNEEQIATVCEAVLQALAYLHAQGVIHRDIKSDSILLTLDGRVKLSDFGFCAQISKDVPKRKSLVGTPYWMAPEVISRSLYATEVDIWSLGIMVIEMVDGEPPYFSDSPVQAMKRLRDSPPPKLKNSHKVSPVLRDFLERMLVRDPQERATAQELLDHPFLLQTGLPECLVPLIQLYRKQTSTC
EPHA2 (human), sequence (P29317 whole entry, looked up): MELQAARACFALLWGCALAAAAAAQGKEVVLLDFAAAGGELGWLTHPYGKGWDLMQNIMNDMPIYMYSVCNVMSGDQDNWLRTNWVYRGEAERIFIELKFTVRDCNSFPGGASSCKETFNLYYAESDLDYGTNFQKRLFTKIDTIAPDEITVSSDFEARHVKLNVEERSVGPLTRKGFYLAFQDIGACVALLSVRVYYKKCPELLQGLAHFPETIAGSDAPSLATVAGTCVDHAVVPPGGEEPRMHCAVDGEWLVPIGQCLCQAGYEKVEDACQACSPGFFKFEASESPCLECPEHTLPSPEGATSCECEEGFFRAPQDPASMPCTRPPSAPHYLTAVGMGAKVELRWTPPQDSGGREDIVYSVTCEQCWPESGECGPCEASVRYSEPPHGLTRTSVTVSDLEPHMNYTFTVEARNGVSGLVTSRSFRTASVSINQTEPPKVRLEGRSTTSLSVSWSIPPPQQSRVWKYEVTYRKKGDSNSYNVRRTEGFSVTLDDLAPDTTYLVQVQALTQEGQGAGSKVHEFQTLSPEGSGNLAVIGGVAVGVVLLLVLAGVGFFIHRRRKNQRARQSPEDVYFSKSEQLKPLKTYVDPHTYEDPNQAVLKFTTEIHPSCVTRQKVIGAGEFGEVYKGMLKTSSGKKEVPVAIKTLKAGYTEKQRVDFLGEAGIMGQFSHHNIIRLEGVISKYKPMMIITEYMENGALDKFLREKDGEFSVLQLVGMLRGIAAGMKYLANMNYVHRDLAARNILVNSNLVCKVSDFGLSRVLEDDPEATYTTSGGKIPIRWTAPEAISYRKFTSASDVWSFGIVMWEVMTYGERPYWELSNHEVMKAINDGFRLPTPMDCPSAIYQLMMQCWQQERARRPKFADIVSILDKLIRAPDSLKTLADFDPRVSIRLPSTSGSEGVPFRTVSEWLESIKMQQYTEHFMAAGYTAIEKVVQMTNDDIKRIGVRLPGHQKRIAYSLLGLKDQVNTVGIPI
MST4 (human), sequence (Q9P289 whole entry, looked up): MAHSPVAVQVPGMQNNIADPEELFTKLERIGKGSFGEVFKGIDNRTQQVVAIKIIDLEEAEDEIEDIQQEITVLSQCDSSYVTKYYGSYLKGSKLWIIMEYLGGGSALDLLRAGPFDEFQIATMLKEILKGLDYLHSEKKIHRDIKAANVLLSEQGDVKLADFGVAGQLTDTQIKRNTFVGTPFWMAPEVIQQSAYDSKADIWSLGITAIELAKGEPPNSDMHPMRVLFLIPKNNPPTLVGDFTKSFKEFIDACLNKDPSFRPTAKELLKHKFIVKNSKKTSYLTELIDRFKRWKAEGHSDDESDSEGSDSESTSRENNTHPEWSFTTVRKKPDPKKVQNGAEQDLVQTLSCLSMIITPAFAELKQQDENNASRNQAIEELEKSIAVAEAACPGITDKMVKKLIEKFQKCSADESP
CaMK1 (human), sequence (Q14012 whole entry, looked up): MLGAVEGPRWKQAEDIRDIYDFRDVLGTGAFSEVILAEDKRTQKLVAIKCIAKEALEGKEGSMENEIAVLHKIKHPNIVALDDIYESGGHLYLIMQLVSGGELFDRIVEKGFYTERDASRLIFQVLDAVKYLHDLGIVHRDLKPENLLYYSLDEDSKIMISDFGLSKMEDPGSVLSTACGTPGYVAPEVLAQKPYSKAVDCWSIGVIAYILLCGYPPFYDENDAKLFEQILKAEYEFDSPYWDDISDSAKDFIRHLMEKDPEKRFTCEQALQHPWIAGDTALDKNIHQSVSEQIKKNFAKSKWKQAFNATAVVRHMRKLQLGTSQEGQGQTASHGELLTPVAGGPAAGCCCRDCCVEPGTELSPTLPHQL
SRC (human), sequence (P12931 whole entry, looked up): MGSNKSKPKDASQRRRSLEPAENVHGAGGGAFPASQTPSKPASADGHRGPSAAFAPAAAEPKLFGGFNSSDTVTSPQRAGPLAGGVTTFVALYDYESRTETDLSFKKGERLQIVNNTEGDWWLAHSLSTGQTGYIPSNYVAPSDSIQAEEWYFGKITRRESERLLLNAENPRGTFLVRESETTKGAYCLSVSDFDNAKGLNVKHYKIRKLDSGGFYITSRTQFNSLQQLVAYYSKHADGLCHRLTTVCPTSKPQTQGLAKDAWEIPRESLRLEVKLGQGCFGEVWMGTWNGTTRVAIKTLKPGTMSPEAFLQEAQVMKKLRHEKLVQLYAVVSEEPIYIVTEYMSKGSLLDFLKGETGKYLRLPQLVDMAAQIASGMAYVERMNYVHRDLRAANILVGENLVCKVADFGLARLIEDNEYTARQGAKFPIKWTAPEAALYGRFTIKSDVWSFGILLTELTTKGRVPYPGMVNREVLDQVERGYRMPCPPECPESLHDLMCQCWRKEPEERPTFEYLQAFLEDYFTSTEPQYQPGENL
CHEK1 (human), sequence (O14757 whole entry, looked up): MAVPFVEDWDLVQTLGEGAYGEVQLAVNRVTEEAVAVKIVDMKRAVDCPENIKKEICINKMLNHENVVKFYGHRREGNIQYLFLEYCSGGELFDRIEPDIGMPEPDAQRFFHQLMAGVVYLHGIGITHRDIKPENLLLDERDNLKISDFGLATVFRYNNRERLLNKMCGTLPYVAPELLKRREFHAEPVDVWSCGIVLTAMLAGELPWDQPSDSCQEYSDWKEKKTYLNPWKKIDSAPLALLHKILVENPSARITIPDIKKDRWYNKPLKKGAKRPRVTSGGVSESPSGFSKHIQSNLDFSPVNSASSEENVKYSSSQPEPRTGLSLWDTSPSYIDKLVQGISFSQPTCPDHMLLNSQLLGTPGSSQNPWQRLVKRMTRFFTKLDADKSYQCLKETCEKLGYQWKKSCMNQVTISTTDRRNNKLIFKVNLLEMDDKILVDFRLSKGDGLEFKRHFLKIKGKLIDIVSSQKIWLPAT
PAK4 (human), sequence (O96013 whole entry, looked up): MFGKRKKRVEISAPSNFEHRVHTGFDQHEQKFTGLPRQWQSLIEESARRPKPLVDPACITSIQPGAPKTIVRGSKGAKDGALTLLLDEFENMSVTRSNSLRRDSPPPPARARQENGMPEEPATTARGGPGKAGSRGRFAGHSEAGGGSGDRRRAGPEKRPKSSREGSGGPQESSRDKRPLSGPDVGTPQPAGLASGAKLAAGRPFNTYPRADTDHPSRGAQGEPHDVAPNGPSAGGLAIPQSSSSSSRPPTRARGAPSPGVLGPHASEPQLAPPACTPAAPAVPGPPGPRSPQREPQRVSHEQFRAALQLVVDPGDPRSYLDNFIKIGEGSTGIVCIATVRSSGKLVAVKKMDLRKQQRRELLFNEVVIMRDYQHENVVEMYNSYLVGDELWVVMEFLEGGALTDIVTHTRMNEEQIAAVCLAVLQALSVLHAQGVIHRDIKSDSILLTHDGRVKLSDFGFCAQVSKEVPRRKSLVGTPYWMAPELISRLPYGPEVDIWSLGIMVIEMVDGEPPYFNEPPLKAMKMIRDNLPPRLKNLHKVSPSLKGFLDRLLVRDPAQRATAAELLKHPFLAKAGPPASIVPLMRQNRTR
CHEK2 (human), sequence (O96017 whole entry, looked up): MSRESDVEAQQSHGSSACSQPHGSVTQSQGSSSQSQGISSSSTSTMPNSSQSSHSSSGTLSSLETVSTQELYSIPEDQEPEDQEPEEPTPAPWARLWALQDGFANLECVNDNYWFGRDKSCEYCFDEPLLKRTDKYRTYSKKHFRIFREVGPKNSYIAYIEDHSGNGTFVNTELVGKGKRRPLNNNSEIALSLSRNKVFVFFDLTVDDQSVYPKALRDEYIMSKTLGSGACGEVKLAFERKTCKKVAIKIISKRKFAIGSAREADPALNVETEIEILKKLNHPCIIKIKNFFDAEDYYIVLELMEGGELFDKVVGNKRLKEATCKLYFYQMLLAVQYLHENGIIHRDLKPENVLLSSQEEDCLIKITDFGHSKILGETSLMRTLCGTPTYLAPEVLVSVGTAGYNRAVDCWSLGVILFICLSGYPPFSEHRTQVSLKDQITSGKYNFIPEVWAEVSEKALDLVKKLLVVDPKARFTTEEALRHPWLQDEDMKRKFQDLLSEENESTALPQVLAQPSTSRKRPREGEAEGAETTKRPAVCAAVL

residual activity ([1]; compound 1.0 µM): 87%
residual activity ([1]; compound 10.0 µM): 90%
residual activity (AURKB (human); compound 1.0 µM): 100%
residual activity (AURKB (human); compound 10.0 µM): 106%
residual activity (CDK2 CCNA2 (human); compound 1.0 µM): 85%
residual activity (CDK2 CCNA2 (human); compound 10.0 µM): 94%
residual activity (CHEK1 (human); compound 10.0 µM): 81%
residual activity (CHEK2 (human); compound 1.0 µM): 82%
residual activity (CHEK2 (human); compound 10.0 µM): 94%
residual activity (CSK (human); compound 1.0 µM): 101%
residual activity (CSK (human); compound 10.0 µM): 104%
residual activity (CaMK1 (human); compound 1.0 µM): 89%
residual activity (CaMK1 (human); compound 10.0 µM): 104%
residual activity (DYRK3 (human); compound 1.0 µM): 78%
residual activity (DYRK3 (human); compound 10.0 µM): 96%
residual activity (EPHA2 (human); compound 1.0 µM): 94%
residual activity (EPHA2 (human); compound 10.0 µM): 86%
residual activity (EPHB3 (human); compound 1.0 µM): 81%
residual activity (LCK (mouse); compound 1.0 µM): 74%
residual activity (LCK (mouse); compound 10.0 µM): 95%
residual activity (MAP2K1 (human); compound 1.0 µM): -2%
residual activity (MAP2K1 (human); compound 10.0 µM): 2%
residual activity (MAPK8 (human); compound 1.0 µM): 83%
residual activity (MAPK8 (human); compound 10.0 µM): 107%
residual activity (MST4 (human); compound 1.0 µM): 126%
residual activity (MST4 (human); compound 10.0 µM): 108%
residual activity (MYLK (human); compound 1.0 µM): 70%
residual activity (MYLK (human); compound 10.0 µM): 94%
residual activity (PAK4 (human); compound 1.0 µM): 103%
residual activity (PAK4 (human); compound 10.0 µM): 106%
residual activity (PAK6 (human); compound 1.0 µM): 87%
residual activity (PAK6 (human); compound 10.0 µM): 98%
residual activity (PKN2 (human); compound 1.0 µM): 87%
residual activity (PKN2 (human); compound 10.0 µM): 82%
residual activity (ROCK2 (rat); compound 1.0 µM): 83%
residual activity (ROCK2 (rat); compound 10.0 µM): 96%
residual activity (RPS6KA3 KD1 KD2 (human); compound 1.0 µM): 78%
residual activity (RPS6KA3 KD1 KD2 (human); compound 10.0 µM): 100%
residual activity (SRC (human); compound 1.0 µM): 94%
residual activity (SRC (human); compound 10.0 µM): 99%
residual activity (TBK1 (human); compound 1.0 µM): 106%
residual activity (TBK1 (human); compound 10.0 µM): 94%
SMILES: O=C1NC(=S)N[C@@H]1Cc1c[nH]c2ccccc12

residual activity ([1]; compound 0.001 µM): 85%
residual activity ([1]; compound 0.01 µM): 76%
residual activity (CDK2 CCNA2 (human); compound 0.001 µM): 102%
residual activity (CDK2 CCNA2 (human); compound 0.01 µM): 87%
residual activity (CDK2 CCNA2 (human); compound 0.1 µM): 85%
residual activity (CHEK1 (human); compound 0.001 µM): 89%
residual activity (CHEK1 (human); compound 0.1 µM): 21%
residual activity (CHEK2 (human); compound 0.001 µM): 32%
residual activity (CHEK2 (human); compound 0.01 µM): 7%
residual activity (CHEK2 (human); compound 0.1 µM): 0%
residual activity (CSK (human); compound 0.01 µM): 97%
residual activity (CSK (human); compound 0.1 µM): 102%
residual activity (CaMK1 (human); compound 0.001 µM): 104%
residual activity (CaMK1 (human); compound 0.01 µM): 116%
residual activity (CaMK1 (human); compound 0.1 µM): 103%
residual activity (DYRK3 (human); compound 0.001 µM): 83%
residual activity (DYRK3 (human); compound 0.01 µM): 74%
residual activity (DYRK3 (human); compound 0.1 µM): 33%
residual activity (EPHA2 (human); compound 0.001 µM): 97%
residual activity (EPHA2 (human); compound 0.01 µM): 101%
residual activity (EPHA2 (human); compound 0.1 µM): 87%
residual activity (EPHB3 (human); compound 0.001 µM): 114%
residual activity (EPHB3 (human); compound 0.01 µM): 99%
residual activity (EPHB3 (human); compound 0.1 µM): 101%
residual activity (IKBKB (human); compound 0.001 µM): 76%
residual activity (IKBKB (human); compound 0.01 µM): 74%
residual activity (LCK (mouse); compound 0.001 µM): 97%
residual activity (LCK (mouse); compound 0.01 µM): 95%
residual activity (LCK (mouse); compound 0.1 µM): 64%
residual activity (MAP2K1 (human); compound 0.001 µM): 87%
residual activity (MAP2K1 (human); compound 0.01 µM): 33%
residual activity (MAP2K1 (human); compound 0.1 µM): 7%
residual activity (MAPK8 (human); compound 0.001 µM): 114%
residual activity (MAPK8 (human); compound 0.01 µM): 117%
residual activity (MAPK8 (human); compound 0.1 µM): 106%
residual activity (MST4 (human); compound 0.001 µM): 87%
residual activity (MST4 (human); compound 0.01 µM): 80%
residual activity (MYLK (human); compound 0.001 µM): 90%
residual activity (MYLK (human); compound 0.01 µM): 89%
residual activity (MYLK (human); compound 0.1 µM): 65%
residual activity (PAK4 (human); compound 0.001 µM): 80%
residual activity (PAK4 (human); compound 0.01 µM): 85%
residual activity (PAK4 (human); compound 0.1 µM): 76%
residual activity (PAK6 (human); compound 0.001 µM): 97%
residual activity (PAK6 (human); compound 0.01 µM): 102%
residual activity (PAK6 (human); compound 0.1 µM): 88%
residual activity (PKN2 (human); compound 0.001 µM): 67%
residual activity (PKN2 (human); compound 0.01 µM): 61%
residual activity (PKN2 (human); compound 0.1 µM): 36%
residual activity (ROCK2 (rat); compound 0.001 µM): 88%
residual activity (ROCK2 (rat); compound 0.01 µM): 90%
residual activity (ROCK2 (rat); compound 0.1 µM): 84%
residual activity (RPS6KA3 KD1 KD2 (human); compound 0.001 µM): 82%
residual activity (RPS6KA3 KD1 KD2 (human); compound 0.01 µM): 65%
residual activity (RPS6KA3 KD1 KD2 (human); compound 0.1 µM): 19%
residual activity (SRC (human); compound 0.001 µM): 84%
residual activity (SRC (human); compound 0.01 µM): 79%
residual activity (SRC (human); compound 0.1 µM): 71%
residual activity (TBK1 (human); compound 0.001 µM): 99%
residual activity (TBK1 (human); compound 0.01 µM): 83%
residual activity (TBK1 (human); compound 0.1 µM): 43%
SMILES: C/C(=C1/C(=O)Nc2ccc(NC(N)=O)cc21)c1ccc[nH]1

residual activity ([1]; compound 1.0 µM): 87%
residual activity ([1]; compound 10.0 µM): 55%
residual activity (CDK2 CCNA2 (human); compound 1.0 µM): 58%
residual activity (CDK2 CCNA2 (human); compound 10.0 µM): 14%
residual activity (CHEK1 (human); compound 1.0 µM): 102%
residual activity (CHEK1 (human); compound 10.0 µM): 88%
residual activity (CHEK2 (human); compound 1.0 µM): 77%
residual activity (CHEK2 (human); compound 10.0 µM): 46%
residual activity (CSK (human); compound 1.0 µM): 91%
residual activity (CSK (human); compound 10.0 µM): 92%
residual activity (CaMK1 (human); compound 1.0 µM): 54%
residual activity (CaMK1 (human); compound 10.0 µM): 13%
residual activity (DYRK3 (human); compound 1.0 µM): 71%
residual activity (DYRK3 (human); compound 10.0 µM): 24%
residual activity (EPHA2 (human); compound 1.0 µM): 96%
residual activity (EPHA2 (human); compound 10.0 µM): 84%
residual activity (EPHB3 (human); compound 1.0 µM): 89%
residual activity (EPHB3 (human); compound 10.0 µM): 93%
residual activity (LCK (mouse); compound 1.0 µM): 88%
residual activity (LCK (mouse); compound 10.0 µM): 74%
residual activity (MAP2K1 (human); compound 1.0 µM): 79%
residual activity (MAP2K1 (human); compound 10.0 µM): 62%
residual activity (MAPK8 (human); compound 1.0 µM): 76%
residual activity (MAPK8 (human); compound 10.0 µM): 61%
residual activity (MST4 (human); compound 1.0 µM): 105%
residual activity (MST4 (human); compound 10.0 µM): 85%
residual activity (MYLK (human); compound 1.0 µM): 76%
residual activity (MYLK (human); compound 10.0 µM): 37%
residual activity (PAK4 (human); compound 1.0 µM): 89%
residual activity (PAK4 (human); compound 10.0 µM): 54%
residual activity (PAK6 (human); compound 1.0 µM): 72%
residual activity (PAK6 (human); compound 10.0 µM): 78%
residual activity (PKN2 (human); compound 1.0 µM): 69%
residual activity (PKN2 (human); compound 10.0 µM): 36%
residual activity (ROCK2 (rat); compound 1.0 µM): 73%
residual activity (ROCK2 (rat); compound 10.0 µM): 39%
residual activity (RPS6KA3 KD1 KD2 (human); compound 1.0 µM): 80%
residual activity (RPS6KA3 KD1 KD2 (human); compound 10.0 µM): 53%
residual activity (SRC (human); compound 1.0 µM): 91%
residual activity (SRC (human); compound 10.0 µM): 83%
residual activity (TBK1 (human); compound 1.0 µM): 91%
residual activity (TBK1 (human); compound 10.0 µM): 84%
SMILES: O=C1Nc2nc(-c3c(O)cccc3OCC3CC3)cc(C3CCCNC3)c2CO1 (stereo not given)
